Laboratory results reported in patent US20250195660A1, “INACTIVATING BACTERIA WITH ELECTRIC PULSES AND ANTIBIOTICS” (Purdue Research Foundation, priority 2018, published 2025).

Legend:
[1] = system: Stapphylococcus aureus (gram positive bacterium number 25923); assay: Inactivation of S. aureus by 300 ns electric pulses combined with antibiotic (CFU plating); assay type: cell-based, Staphylococcus aureus
Description: Equipment. Used was a capacitor based Blumlein pulse generator with a spark gap switch to produce trapezoidal EPs of 300 ns duration at the peak with rise and fall times close to 50 ns. Multiple pulses were delivered at a frequency of 1 Hz.
The samples were treated in a standard electroporation cuvette (Dot Scientific) whose resistance must match the pulse generator's impedance to prevent pulse reflection. Utilizing Luria broth, containing 0.5% NaCl, in a cuvette with gap distances of 1 mm and 2 mm yielded the best electrical match (no reflections in the measured signal). Used were 2 mm cuvettes to ensure consistency between tests, and the applied voltage was measured across the cuvette using a LeCroy PPE 20 kV high voltage probe with a 1000:1 attenuation feeding into a TeleDyne LeCroy Waverunner 6 Zi Oscilloscope capable of measuring signals up to 4 GHz. Assuming a purely parallel plate geometry with minimal fringing gives an electric field E=V/d, where V is the peak voltage of the applied pulse and d is the gap distance.
Sample Preparation. These experiments assessed Stapphylococcus aureus (gram positive bacterium number 25923) from ATCC and Esherichia coli (gram negative bacterium number 25922) inoculated in luria broth (LB Broth Lennox, powder microbial growth medium. SIGMA-ALDRICH) by taking 8 mL of broth in a 50 mL sterile conical tube and incubating in a shaker for 20 h at 37° C. The sample was then diluted with fresh Luria broth until attaining an optical density of 0.25 for 100 μL on a photospectrometer (Molecular Devices) for a wavelength of 562 nm as measured in a 96-well plate. The optical density, which varies with growth or tube volume, was determined experimentally and set between 1×10^8 and 1.5×10^8 colony forming units (CFUs)/mL for the samples to be pulsed. These samples were then plated at dilutions between 10-6 and 100 (no dilution) depending on the effectiveness of the pulse treatments.
Electric Pulse Treatment Protocol. […] Although no consensus exists on a universal scaling law for applied EP “dose,” we fixed the energy density
[formula] • where N is the number of pulses and τ is the pulse duration. Fixing U for E=40, 30, and 20 kV/cm gave N=250, 445, and 1000 pulses, respectively. Cultures were plated as described below.
Cuvettes were filled with 365 μL of sample (sufficient to just cover the electrodes) and then 250 μL of molecular biology grade mineral oil was placed on top. Keeping the samples on ice upon achieving the required dilution further reduced experimental variability by slowing biological processes, such as fission This facilitated the assessment of the inactivation efficiency of EPs, drugs, and combined treatments.
Tests used the clinically relevant, bactericidal drug tobramycin, which targets the 30S and 50S ribosome complex and has a clinical dose from 4 to 5 μg/mL and rifampicin, which inhibits bacterial […]. Added were 0.2, 2, and 20 μg/mL of each drug to the initial bacterial dilutions prior to pulsing. Samples were immediately placed on ice to minimize cell division and reduce variability. These aliquots were also used to plate individual unpulsed controls for each drug concentration.
Plating. Plating was done on standard disposable tissue culture Petri dishes from VWR (15 cm diameter, 10 mm height) and covered with 10 mL of agar in luria broth (Agar, microbiology tested powder, SIGMA-ALDRICH), which was prepared by adding 20 g of LB lennox (SIGMA-ALDRICH) and 15 g/L of agar to water and then autoclaved.
Plated were samples at dilutions of 10^−6 and 10^−3 for low and high electric field treatments, respectively, and at 10^−6 and 10^−5 for controls All samples containing 100 μL of pulsed or diluted cultures were plated on LB agar plates and counted after overnight incubation at 37° C. […]

[2] = system: Klebsiella pneumoniae (ATCC BAA-2146 NDM-I positive); assay: Inactivation of K. pneumoniae by 300 ns electric pulses and/or antibiotics (CFU plating); assay type: cell-based
Text: (§1) Except for rifampicin, the five other antibiotics in these examples primarily target gram-positive bacteria and are largely ineffective or not used against gram-negative bacteria in a clinical setting.
(§2) A Blumlein pulsed generator consisting of two lines comprised of twelve 2000 pF capacitors connected by inductors produced 300 ns EPs with rise-times of 30 ns and fall-times of 35 ns at a repetition frequency of 1 Hz (12). The EPs were applied to a standard 2 mm gap electroporation cuvette (Dot Scientific R) filled with a solution containing the microorganisms. Used was a Luria broth of 0.5% salinity (5 grams of NaCl/Liter) for the solution to electrically match the resistance of the sample with the impedance of the pulse generator (11Ω) to prevent signal reflection. The voltage measurements were taken using a LeCroy PPE 20 kV high voltage probe with a 1000:1 attenuation recorded by a TeleDyne LeCroy® Waverunner 6 Zi Oscilloscope with a bandwidth of 4 GHZ.
(§3) The gram-negative strains included a carbapenem-resistant Escherichia coli (ATCC® BA-2452TM, New Delhi metallo-beta-lactamase NDM-1 positive.), Klebsiella pneumoniae (ATCC® BAA-2146TM NDM-I positive), and a gentamicin, streptomycin and sulfonamide resistant Pseudomonas aeruginosa (BEI Resources NR-31040). Assessed was the gram-positive strain of methicillin resistant Staphylococcus aureus (USA300-0114 strain), which is also resistant to erythromycin and tetracycline. Samples were cultured in Luria broth (LB Broth Lennox, powder microbial growth medium, SIGMA-ALDRICH®) by taking 25 mL of broth in a 50 mL sterile conical tube and incubating in a shaker for 16 h at 37° C. Samples were diluted 50% by adding 25 mL media to the incubated sample as we plated controls for each experiment and condition.
(§4) Samples were treated in 2 mm gap cuvettes containing 365 μL of sample between the electrodes, with bio-grade mineral oil added on top of the electrode plates to prevent arcing.
(§5) To establish a common baseline for comparing different NSEP parameters, we fixed the energy density U delivered to the cuvettes according to Formula (1) (above). For 300 ns EPs, 500 EPs at 20 kV/cm and 222 EPs at 30 kV/cm delivered the same energy to the sample.
(§6) Tissue culture Petri dishes from VWR R (15 cm diameter, 10 mm height) were utilized for plating. Each plate was covered with 15 mL of Luria broth (Agar, microbiology tested powder, SIGMA-ALDRICH®), which was prepared by adding 20 g of LB Lennox (SIGMA-ALDRICH) and 15 g/L of agar to water prior to being autoclaved. The salinity of the agar was the same as the LB (0.5% NaCl) to minimize additional environmental stressors on the bacteria.
(§7) Removed was 20 μL from each cuvette and added to 180 μL of PBS in a 96-well dish in triplicate. Each well was then diluted by a ratio of 10:1 five additional times by taking 20 μL of the diluted sample into subsequent wells using multi-channel pipettes (using fresh tips for each dilution). Plated were the six dilutions of each sample two times each by adding 4 μL from each well onto the Petri dish using a multi-channel pipette, which allowed the plating of all three replicates on the same plate to achieve n=6. These plates were then cultured overnight in an incubator at 37° C., and counted the next day.

[3] = system: carbapenem-resistant Escherichia coli (ATCC BA-2452, NDM-1 positive); assay: Inactivation of carbapenem-resistant E. coli by 300 ns electric pulses and/or antibiotics (CFU plating); assay type: cell-based; conditions: 30 kV/cm NSEPs + 20 μg/mL
Text: as §1, §2, §3, §4, §5, §6, §7

## CO[C@H]1/C=C/O[C@@]2(C)Oc3c(C)c(O)c4c(O)c(c(/C=N/N5CCN(C)CC5)c(O)c4c3C2=O)NC(=O)/C(C)=C\C=C\[C@H](C)[C@H](O)[C@@H](C)[C@@H](O)[C@@H](C)[C@H](OC(C)=O)[C@@H]1C [rifampicin]
[1]; 20 kV/cm EPs + 0.2 μg/mL
  log-reduction of S. aureus: 1 log
[1]; 20 kV/cm EPs + 2 μg/mL
  log-reduction of S. aureus: 1 log
[1]; 20 kV/cm EPs + 20 μg/mL
  log-reduction of S. aureus: 1 log
[2]; 30 kV/cm NSEPs + 2 μg/mL
  additional inactivation compared to NSEPs alone, K. pneumoniae: 1 log
  log reduction of K. pneumoniae: 5 log
[2]; 30 kV/cm NSEPs + 20 μg/mL
  additional inactivation compared to NSEPs alone, K. pneumoniae: 1 log
[3]
  log reduction of E. coli: 6 log
